Reference: patent US9023821B2, “Use of MicroRNA for treating diseases associated with a dysfunction of the cilia in multiciliated epithelial cells” (Centre National de la Recherche Scientifique, priority 2009, dated 2015)

Tests used:
[1] = system: basal cells and pyramidal cells of the airway epithelium; assay: miRNA expression in sorted basal cells versus pyramidal cells (ciliated + secretory), HTS and Agilent chips; design: species or system human; conditions: for Modulation of expression of the miRNAs in pyramidal cells (323(−)) relative to basal cells 323(+): HTS and Agilent chips; for Intensity of the level of expression in log2 in pyramidal cells (323(−)): pyramidal cells (ciliated + secretory)
Outline: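 miRNA repertoires measured by high-throughput sequencing or Agilent arrays on total RNA from sorted airway epithelial populations of 3 donors. Sorting used CD151-PE and anti-tissue factor-FITC: double-positive basal versus double-negative ciliated/secretory cells, with DAPI-stained and aggregated cells excluded.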

[2] = system: human airway epithelial cells (HAECs); assay: Agilent miRNA chips, miRNA expression at four stages of differentiation of HAECs; conditions: for Modulation (ratio of the level of intensity of expression in log2 in two stages of differentiation) measured with the Agilent chips, D7 − D0 / Modulation (ratio of the level of intensity of expression in log2 in two stages of differentiation) measured with the Agilent chips, FC − D7 / Modulation (ratio of the level of intensity of expression in log2 in two stages of differentiation) measured with the Agilent chips, WD − D0 / Modulation (ratio of the level of intensity of expression in log2 in two stages of differentiation) measured with the Agilent chips, WD − FC / Level of intensity of expression in log2 measured with the Agilent chips, D0 / Level of intensity of expression in log2 measured with the Agilent chips, D7 / Level of intensity of expression in log2 measured with the Agilent chips, FC / Level of intensity of expression in log2 measured with the Agilent chips, WD: Table VI; for Level of intensity of expression in log2 measured with the Agilent chips, D0: stage D0; for Level of intensity of expression in log2 measured with the Agilent chips, D7: stage D7; for Level of intensity of expression in log2 measured with the Agilent chips, FC: stage FC; for Level of intensity of expression in log2 measured with the Agilent chips, WD: stage WD; for Modulation (ratio of the level of intensity of expression in log2 at two stages of differentiation), FC − D7 / Modulation (ratio of the level of intensity of expression in log2 at two stages of differentiation), WD − FC: Agilent miRNA chips, Table V
Outline: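 Arrays probing 866 human and 89 human viral miRNAs were used in parallel with sequencing. The same patients' RNA was labelled and hybridized following the manufacturer's protocol.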

[3] = system: human airway epithelial cells (HAECs); assay: High-throughput sequencing (HTS) of miRNAs at four stages of differentiation of HAECs; conditions: for Modulation (ratio of the level of intensity of expression in log2 in two stages of differentiation) measured by high-throughput sequencing, D7 − D0 / Modulation (ratio of the level of intensity of expression in log2 in two stages of differentiation) measured by high-throughput sequencing, FC − D7 / Modulation (ratio of the level of intensity of expression in log2 in two stages of differentiation) measured by high-throughput sequencing, WD − D0 / Modulation (ratio of the level of intensity of expression in log2 in two stages of differentiation) measured by high-throughput sequencing, WD − FC / Level of intensity of expression in log2 measured by high-throughput sequencing, D0 / Level of intensity of expression in log2 measured by high-throughput sequencing, D7 / Level of intensity of expression in log2 measured by high-throughput sequencing, FC / Level of intensity of expression in log2 measured by high-throughput sequencing, WD: Table VI; for Level of intensity of expression in log2 At the differentiated stage (WD) measured in HTS: healthy human airway epithelial tissue; for Level of intensity of expression in log2 measured by high-throughput sequencing, D0: stage D0; for Level of intensity of expression in log2 measured by high-throughput sequencing, D7: stage D7; for Level of intensity of expression in log2 measured by high-throughput sequencing, FC: stage FC; for Level of intensity of expression in log2 At the differentiated stage (WD) measured in HTS / Level of intensity of expression in log2 measured by high-throughput sequencing, WD: stage WD
Outline: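 Total RNA including small RNAs was taken from air-liquid interface cultures at ALI-D0, ALI-D7, ALI-FC (first cilia, ~14 days) and ALI-WD (~21 days). SOLiD small-RNA libraries were sequenced, and 5p/3p reads were normalized to 10^6 sequences and expressed as percentage abundance.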

Substance	Modulation of expression of the miRNAs in pyramidal cells (323(−)) relative to basal cells 323(+) [1]	Intensity of the level of expression in log2 in basal cells (323(+)) [1] [log2]	Intensity of the level of expression in log2 in pyramidal cells (323(−)) [1] [log2]	Modulation (ratio of the level of intensity of expression in log2 in two stages of differentiation) measured with the Agilent chips, D7 − D0 [2] [log2]	Modulation (ratio of the level of intensity of expression in log2 in two stages of differentiation) measured with the Agilent chips, FC − D7 [2] [log2]	Modulation (ratio of the level of intensity of expression in log2 in two stages of differentiation) measured with the Agilent chips, WD − D0 [2] [log2]	Modulation (ratio of the level of intensity of expression in log2 in two stages of differentiation) measured with the Agilent chips, WD − FC [2] [log2]	Level of intensity of expression in log2 measured with the Agilent chips, D0 [2] [log2]	Level of intensity of expression in log2 measured with the Agilent chips, D7 [2] [log2]	Level of intensity of expression in log2 measured with the Agilent chips, FC [2] [log2]	Level of intensity of expression in log2 measured with the Agilent chips, WD [2] [log2]	Modulation (ratio of the level of intensity of expression in log2 in two stages of differentiation) measured by high-throughput sequencing, D7 − D0 [3] [log2]	Modulation (ratio of the level of intensity of expression in log2 in two stages of differentiation) measured by high-throughput sequencing, FC − D7 [3] [log2]	Modulation (ratio of the level of intensity of expression in log2 in two stages of differentiation) measured by high-throughput sequencing, WD − D0 [3] [log2]	Modulation (ratio of the level of intensity of expression in log2 in two stages of differentiation) measured by high-throughput sequencing, WD − FC [3] [log2]	Level of intensity of expression in log2 At the differentiated stage (WD) measured in HTS [3] [log2]	Level of intensity of expression in log2 measured by high-throughput sequencing, D0 [3] [log2]	Level of intensity of expression in log2 measured by high-throughput sequencing, D7 [3] [log2]	Level of intensity of expression in log2 measured by high-throughput sequencing, FC [3] [log2]	Level of intensity of expression in log2 measured by high-throughput sequencing, WD [3] [log2]	further results
hsa-miR-378: human miRNA, SEQ ID No. 43 (ACUGGACUUGGAGUCAGAAGG; expressed or natural sequence; listed as Homo sapiens)	−2.43	4.11	1.68	3.23	−0.81	2.16	−0.26	4.38	7.61	6.80	6.54	2.15	−0.26	1.50	−0.39	11.70	10.37	12.53	12.26	11.87	Modulation (ratio of the level of intensity of expression in log2 in two stages of differentiation), D7 − D0 ([3]; HTS): 2.15 log2; Modulation (ratio of the level of intensity of expression in log2 in two stages of differentiation), FC − D7 ([3]; HTS): −0.26 log2; Modulation (ratio of the level of intensity of expression in log2 in two stages of differentiation), WD − FC ([3]; HTS): −0.39 log2; Abundance (%), D0 ([3]; HTS, ALI-D0): 0.29%; Abundance (%), D7 ([3]; HTS, ALI-D7): 1.30%; Abundance (%), FC ([3]; HTS, ALI-FC): 1.04%; Abundance (%), WD ([3]; HTS, ALI-WD): 0.61%
hsa-miR-425: human miRNA, SEQ ID No. 44 (AAUGACACGAUCACUCCCGUUGA; expressed or natural sequence; listed as Homo sapiens)	0.70	4.52	5.22	1.59	0.19	1.57	−0.21	6.61	8.21	8.39	8.18	0.42	0.74	1.12	−0.04	9.53	10.58	11.01	11.75	11.70	Modulation (ratio of the level of intensity of expression in log2 at two stages of differentiation), FC − D7 [2]: 0.19 log2; Modulation (ratio of the level of intensity of expression in log2 at two stages of differentiation), WD − FC [2]: −0.21 log2
hsa-miR-429: human miRNA, SEQ ID No. 45 (UAAUACUGUCUGGUAAAACCGU; expressed or natural sequence; listed as Homo sapiens)	−0.31	6.92	6.61	1.71	0.14	1.95	0.10	7.97	9.68	9.82	9.93	0.42	0.14	1.30	0.74	15.11	8.23	8.65	8.79	9.53	Modulation (ratio of the level of intensity of expression in log2 at two stages of differentiation), FC − D7 [2]: 0.14 log2; Modulation (ratio of the level of intensity of expression in log2 at two stages of differentiation), WD − FC [2]: 0.10 log2
